Changes are numbered by the printed parent chain.
T1: K36A/K41A PTP1B-OX mutant (Homo sapiens, UniProt P18031, K36A/K41A)
T1 construct: PTP1B (1–321) and TCPTP (1–317) cloned in pET21b vector were used as templates; 6xHis (C); made in house; host or cells: E. coli BL21 (DE3)-RIL
T1 sequence (P18031 1-321 K36A/K41A): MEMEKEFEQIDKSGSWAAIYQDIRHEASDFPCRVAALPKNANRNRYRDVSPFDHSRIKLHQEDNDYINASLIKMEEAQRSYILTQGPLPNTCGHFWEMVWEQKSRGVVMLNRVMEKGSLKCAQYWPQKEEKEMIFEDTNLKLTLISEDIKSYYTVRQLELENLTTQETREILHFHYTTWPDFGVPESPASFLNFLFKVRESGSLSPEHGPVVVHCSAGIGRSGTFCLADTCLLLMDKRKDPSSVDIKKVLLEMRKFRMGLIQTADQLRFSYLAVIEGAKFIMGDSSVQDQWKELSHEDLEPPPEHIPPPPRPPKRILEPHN

T2: PTP1B-OX (Homo sapiens, UniProt P18031)
T2 construct: Purified PTP1B (1–321) (100 nM) was mixed with increasing concentrations of H2O2; 6xHis (C); made in house; host or cells: E. coli BL21 (DE3)-RIL
T2 sequence (P18031 1-321): T1 sequence (P18031 1-321 K36A/K41A) with A36K, A41K

B1: scFv45: recombinant conformation-sensor single-chain variable fragment antibody recognizing oxidized PTP1B (antibody, V domains shown)
VH: TVTLDESGGGLQAPGGALSLVCKASGFTFSSYDMGWIRQAPGKGLEYVAGITDNGRYASYGSAVDGRATISRDNGQSSVRLQLNNLRAEDTGTYYCARDDGSGWTGNSIDAWGHGTEVIVSE
VL: ALTQPSSVSANPGGTVKITCSGSSSAYGYGWYQQKSPGSAPVTVIYNNNKRPSNIPSRFSGSKSGSTGTLTITGVQAEDEAVYFCGSEDSSTDAIFGAGTTLTVL

Columns and labels:
[1] = test system: high fat diet-fed C57Bl6/J mice; test: body weight, glucose and insulin tolerance tests in diet-fed mice; assay type: in vivo; details: for glucose tolerance (GTT) / insulin sensitivity (ITT): HFD fed 14-week-old male mice; for glucose tolerance (GTT): D-glucose 2 mg g−1; for insulin sensitivity (ITT): insulin 0.75 mU g−1
Experimental: (§1) Animal experiments were performed according to protocols approved by the Institutional Animal Use and Care Committee of Cold Spring Harbor laboratory. Ten week-old male C57bl6/J mice fed chow diet or high fat diet (D12492) were acclimatized for 10 days under standard conditions before experiments. Mice were intraperitoneally (i.p.) injected once daily with vehicle, 3 mg kg^−1 of chelerythrine or 3 mg kg^−1 of protopine for 30 days. Mice were killed after 6 h of fasting, and serum samples were collected to measure the metabolic parameters and tissue samples were collected for studying changes in signaling. No animals were excluded from the analysis.
Glucose in tail blood was measured using a glucometer (One-Touch Basic; Lifescan, CA). For glucose tolerance tests (GTTs), mice were fasted for 10 h and then injected with 20% D-glucose (2 mg g^−1 body weight) and the blood glucose was monitored immediately before and at 15, 30, 60, and 120 min following the injection. For insulin tolerance tests (ITTs), 4 h fasted animals were given insulin (0.75 mU g^−1) and blood glucose was measured immediately before and at 30, 60, and 120 min post-injection. Statistical analysis was performed using ANOVA for both GTT and ITT.

[2] = test system: insulin signaling in liver, leptin signaling in hypothalamus; test: insulin and leptin signaling in liver and hypothalamus lysates of treated mice; assay type: in vivo; details: HFD mice
Experimental: Fig. 9 Chelerythrine improved metabolism and promoted insulin and leptin signaling in mice. a Body weight of male mice (C57bl6/J) fed high fat diet and treated with chelerythrine (3 mg kg^−1), protopine (3 mg kg^−1) or saline was monitored from the beginning of the treatment (10 weeks of age) until the study was terminated (14 weeks of age). Data represent the mean ± s.e.m. (n = 10 in each group). b HFD fed 14-week-old male mice treated with saline or chelerythrine were administered D-glucose (2 mg g^−1 body weight), and blood glucose was monitored over the defined time. Data represent the mean ± s.e.m. (n = 10 in each group) and statistical analysis was performed using two-way ANOVA (*p < 0.05, **p < 0.01). c HFD fed 14-week-old male mice treated with saline or chelerythrine were administered insulin (0.75 mU g^−^1 body weight), and blood glucose was monitored over the defined time. Data represent mean ± s.e.m. (n = 10 in each group) and statistical analysis was performed using two-way ANOVA (*p < 0.05). d Representative immunoblots showing insulin-induced tyrosine phosphorylation of IR-β and phosphorylation of AKT, and their corresponding total protein levels, in liver tissue lysates from 14-week-old male mice treated with saline, chelerythrine or protopine. For insulin stimulation, animals were treated with insulin (0.75 mU g^−1, i.p.) for 15 min. e Representative immunoblots showing leptin-induced tyrosine phosphorylation of JAK2 and corresponding total JAK2 levels in the hypothalamus tissue lysates from 14-week-old male mice treated with saline, chelerythrine or protopine. For leptin stimulation, animals were treated with leptin (1 mg kg^−^1, s.c.) for 15 min. All immunoblots are representative of tissue lysates generated from at least three independent animals for each condition (n = 3). Immunoblots were quantified using ImageJ software. Quantitation includes all independent data from the respective experiments and is presented as the mean ± s.e.m. d, e Statistical analysis was performed using two-way ANOVA (*p < 0.05)
as §1

[3] = molecular target: T1, K36A/K41A PTP1B-OX mutant; test: reduction and reactivation of oxidized PTP1B-K36A/K41A, DiFMUP, TCEP; assay type: biochemical
Experimental: Fig. 5 Chelerythrine and scFv45 inhibit reactivation of PTP1B-OX by a similar mechanism. a Molecular modeling of chelerythrine binding to PTP1B-OX, with critical residues for the interaction highlighted on the right. b Oxidized PTP1B-wt (circle), PTP1B-K36A/K41A (square) were incubated with increasing concentrations of chelerythrine (0–10 mM) and phosphatase activity was measured using DiFMUP as substrate in the presence of the reducing agent TCEP (5 mM). c Oxidized PTP1B-wt (circle), PTP1B-mut1 (square), or PTP1B-mut2 (diamond) were incubated with increasing concentrations of chelerythrine (0–10 mM) and phosphatase activity was measured using DiFMUP as substrate in the presence of the reducing agent TCEP (5 mM). Individual data points represent the mean obtained from three separate experiments (n = 3; b, c). d Overlay of crystal structures of the reduced (blue) and oxidized (gray) form of PTP1B.

PTP1B-OX = molecular target: T2, PTP1B-OX; test: reduction and reactivation of reversibly oxidized PTP1B by TCEP, DiFMUP substrate; assay type: biochemical
[4] = insulin 0.75 mU g−1 i.p. 15 min

Molecule | weight loss in high fat diet-fed mice ([1]; 3 mg kg−1 i.p. once daily, in words) | glucose tolerance (GTT) [1] | insulin sensitivity (ITT) [1] | IR-β phosphorylation in liver [2, 4] | IC50 ([3]; TCEP 5 mM, DiFMUP, read-out: IC50 against K36A/K41A PTP1B-OX mutant) [µM] | inhibition of PTP1B-OX relative to K36AK41A PTP1B-OX ([3]; reviewer's summary in peer review file) [fold] | change in body weight, chow diet ([1]; chow diet-fed mice, 3 mg kg−1 i.p. once daily) | decrease in body weight ([1]; high fat diet-fed mice, 3 mg kg−1 i.p. once daily) | AKT phosphorylation in liver [2, 4] | phosphorylation of JAK2 in hypothalamus ([2]; leptin 1 mg kg−1 s.c. 15 min) | reversibility of PTP1B-OX inhibition (PTP1B-OX; complex diluted 100-fold, activity monitored 120 min) | Ki (PTP1B-OX; intrabodies, phosphatase activity, read-out: Ki against oxidized PTP1B-wt) [µM]
CN1CCc2cc3c(cc2C(=O)Cc2ccc4c(c2C1)OCO4)OCO3 [protopine] | not observed | did not improve | did not improve | not observed |  |  |  |  |  |  |  | 
COc1ccc2c(c[n+](C)c3c4cc5c(cc4ccc23)OCO5)c1OC [chelerythrine] |  | improved | improved | marked increase | 75 | 15 | no significant change | ~ 3% | enhanced | enhanced phosphorylation of JAK2 | reversible | 
B1 |  |  |  |  |  |  |  |  |  |  |  | 0.01

Reference: publication PMC5773487, “Harnessing insulin- and leptin-induced oxidation of PTP1B for therapeutic development” (Nature Communications, 2018)
